Consider two compounds from patent publication US9045459B2, “Phenalkylamine derivatives, pharmaceutical compositions containing them, and their use in therapy” (AbbVie Deutschland GmbH & Co. KG, priority 2010, dated 2015).

The target in this test is human GlyT1c transporter (Homo sapiens (Human), UniProt P48067). Nature of the test: Radioligand binding assay using recombinant CHO cell membranes expressing human GlyT1. To be noted: read-out: radioligand binding Kiapp. The method, then:
2. Radioligand binding assays using recombinant CHO cell membranes expressing human GlyT1:
Radioligand binding to human GlyT1c transporter-expressing membranes was determined as described in Mezler et al., Molecular Pharmacology 74:1705-1715, 2008.

pKi: −log10 of the molar value.

Sequence of human GlyT1c transporter (P48067 whole entry): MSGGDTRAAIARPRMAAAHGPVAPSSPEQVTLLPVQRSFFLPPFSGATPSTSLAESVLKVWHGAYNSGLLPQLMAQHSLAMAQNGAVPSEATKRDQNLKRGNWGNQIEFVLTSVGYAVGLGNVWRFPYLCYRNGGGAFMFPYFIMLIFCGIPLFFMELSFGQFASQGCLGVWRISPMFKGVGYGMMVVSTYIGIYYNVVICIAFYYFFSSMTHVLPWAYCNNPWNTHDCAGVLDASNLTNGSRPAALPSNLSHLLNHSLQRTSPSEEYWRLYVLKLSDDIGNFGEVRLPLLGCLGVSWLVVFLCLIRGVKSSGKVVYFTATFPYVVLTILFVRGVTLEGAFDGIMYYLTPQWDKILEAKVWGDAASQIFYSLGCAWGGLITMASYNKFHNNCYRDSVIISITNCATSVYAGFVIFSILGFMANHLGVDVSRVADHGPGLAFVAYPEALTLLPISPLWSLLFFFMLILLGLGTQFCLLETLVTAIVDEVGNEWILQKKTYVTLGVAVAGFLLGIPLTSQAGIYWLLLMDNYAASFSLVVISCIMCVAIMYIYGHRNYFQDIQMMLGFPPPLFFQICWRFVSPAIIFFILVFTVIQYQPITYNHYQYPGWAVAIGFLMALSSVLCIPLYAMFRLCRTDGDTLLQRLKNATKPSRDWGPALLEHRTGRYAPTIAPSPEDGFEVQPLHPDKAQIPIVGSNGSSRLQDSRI

For `Cn1cnc(S(=O)(=O)N2CCc3ccc(C(CN)Cc4ccccc4)cc3C2)c1` (centres unmarked) [Example 1, 2-(2-(1-Methyl-1H-imidazol-4-ylsulfonyl)-1,2,3,4-tetrahydroisoquinolin-7-yl)-3-phenylpropan-1-amine], the pKi was at least 5.00.
For `Cn1cc(S(=O)(=O)N2CCc3ccc(C(CN)Cc4ccccc4)cc3C2)cn1` (centres unmarked) [Example 2, 2-(2-(1-Methyl-1H-pyrazol-4-ylsulfonyl)-1,2,3,4-tetrahydroisoquinolin-7-yl)-3-phenylpropan-1-amine] the value was at least 5.00.
